Data published in ChEMBL document CHEMBL6109061, “Discovery of an Ultralong-acting Nondepolarizing Neuromuscular Blocker That Displays Short Onset Time and On-Demand Rapid Reversal by a Biocompatible Antagonist” (J Med Chem, 2025).
Calls of active or inactive are those of the source. No cut-off for these calls is given here.

Assays:
[1] = species: Rattus norvegicus; assay: Recovery of Pan-induced neuromuscular block in Sprague-Dawley rat assessed as […] ratio (TOFr) <= 25% by measuring recovery time; format: functional
[2] = Solubility of compound in water; format: physicochemical
[3] = system: Rattus norvegicus; assay: Neuromuscular block activity in propofol-induced anesthetized Sprague-Dawley rat model assessed as inhibition of twitch by measuring twitch intensity of quadriceps muscle at 0.3 mg/kg, iv administered as bolus dose by TOF watch monitor analysis relative to control; format: functional
[4] = system: Rattus norvegicus; assay: Neuromuscular block activity in propofol-induced anesthetized iv dosed Sprague-Dawley rat model assessed as minimum dose for complete neuromuscular block; format: functional; details: read-out: MED
[5] = system: Rattus norvegicus; assay: Neuromuscular block activity in propofol-induced anesthetized Sprague-Dawley rat model assessed as reduction in twitch inhibition by measuring twitch intensity of quadriceps muscle at 0.3 mg/kg, iv administered as bolus dose by TOF watch monitor analysis; format: functional, organism-based
[6] = system: Rattus norvegicus; assay: Neuromuscular block activity in propofol-induced anesthetized Sprague-Dawley rat model assessed as inhibition of twitch by measuring twitch intensity of quadriceps muscle at 5 mg/kg, iv administered as bolus dose by TOF watch monitor analysis relative to control; format: functional
[7] = system: Rattus norvegicus; assay: Neuromuscular block activity in propofol-induced anesthetized Sprague-Dawley rat model assessed as inhibition of twitch by measuring twitch intensity of quadriceps muscle at 0.5 mg/kg, iv administered as bolus dose by TOF watch monitor analysis relative to control; format: functional
[8] = system: Rattus norvegicus; assay: Neuromuscular block activity in propofol-induced anesthetized Sprague-Dawley rat model assessed as inhibition of twitch by measuring twitch intensity of quadriceps muscle at 0.04 mg/kg, iv administered as bolus dose by TOF watch monitor analysis relative to control; format: functional
[9] = system: Rattus norvegicus; assay: Neuromuscular block activity in propofol-induced anesthetized Sprague-Dawley rat model assessed as recovery time at 0.04 mg/kg, iv; format: functional
[10] = system: Rattus norvegicus; assay: Neuromuscular block activity in propofol-induced anesthetized Sprague-Dawley rat model assessed as onset time required for twitch reduction at 0.04 mg/kg, iv; format: functional
[11] = system: Rattus norvegicus; assay: Neuromuscular block activity in propofol-induced anesthetized Sprague-Dawley rat model assessed as time duration of 0 to 25 percent recovery indices at 0.04 mg/kg, iv; format: functional
[12] = system: Rattus norvegicus; assay: Neuromuscular block activity in propofol-induced anesthetized Sprague-Dawley rat model assessed as inhibition of twitch by measuring twitch intensity of quadriceps muscle at 0.6 mg/kg, iv administered as bolus dose by TOF watch monitor analysis relative to control; format: functional

| Structure (SMILES) | solubility [2] | inhibition in vivo at 0.3 mg/kg [3] | minimal effective dose [4] | inhibition in vivo at 0.04 mg/kg [8] | also measured |
| --- | --- | --- | --- | --- | --- |
| [Cl-].[Cl-].[Cl-].[Cl-].c1cc2ccc1Cn1cc[n+](c1)Cc1ccc(cc1)Oc1ccc(cc1)C[n+]1ccn(c1)Cc1ccc(cc1)Cn1cc[n+](c1)Cc1ccc(cc1)Oc1ccc(cc1)C[n+]1ccn(c1)C2 | ≥ 50 mM | 2% | 0.9 mg/kg |  | Time [1]: 30 min |
| O=C(O)c1cc2cc(c1)Cn1cc[n+](c1)Cc1ccc(cc1)Oc1ccc(cc1)C[n+]1ccn(c1)Cc1cc(cc(C(=O)O)c1)Cn1cc[n+](c1)Cc1ccc(cc1)Oc1ccc(cc1)C[n+]1ccn(c1)C2.[Cl-].[Cl-].[Cl-].[Cl-] | ≥ 50 mM | 0% | 1 mg/kg |  | Activity [5]: inactive |
| Cc1n2cc[n+]1Cc1ccc(cc1)C[n+]1ccn(c1C)CCCn1cc[n+](c1C)Cc1ccc(cc1)C[n+]1ccn(c1C)CCC2 |  |  |  | 0% | inhibition in vivo at 5 mg/kg [6]: 100%; inhibition in vivo at 0.5 mg/kg [7]: 0% |
| CCc1n2cc[n+]1Cc1ccc(cc1)Oc1ccc(cc1)C[n+]1ccn(c1CC)CCCCCn1cc[n+](c1CC)Cc1ccc(cc1)Oc1ccc(cc1)C[n+]1ccn(c1CC)CCCCC2.[Cl-].[Cl-].[Cl-].[Cl-] | ≥ 50 mM |  |  | 100% | Time [9]: 13 min; Time [10]: 222 s |
| Cc1n2cc[n+]1Cc1ccc(cc1)Oc1ccc(cc1)C[n+]1ccn(c1C)Cc1cccc(c1)Cn1cc[n+](c1C)Cc1ccc(cc1)Oc1ccc(cc1)C[n+]1ccn(c1C)Cc1cccc(c1)C2.[Cl-].[Cl-].[Cl-].[Cl-] | ≥ 50 mM | 100% | 0.1 mg/kg | 54% |  |
| [Cl-].[Cl-].[Cl-].[Cl-].c1cc2ccc1Cc1ccc(cc1)C[n+]1ccn(c1)Cc1ccc(o1)Cn1cc[n+](c1)Cc1ccc(cc1)Cc1ccc(cc1)C[n+]1ccn(c1)Cc1ccc(o1)Cn1cc[n+](c1)C2 | ≥ 50 mM | 0% | 5 mg/kg |  | Activity [5]: inactive |
| [Cl-].[Cl-].[Cl-].[Cl-].c1cc2ccc1Cn1cc[n+](c1)Cc1ccc(cc1)-c1ccc(cc1)C[n+]1ccn(c1)Cc1ccc(cc1)Cn1cc[n+](c1)Cc1ccc(cc1)-c1ccc(cc1)C[n+]1ccn(c1)C2 | ≥ 50 mM | 3% | 1.2 mg/kg |  | Time [1]: 36 min |
| [Cl-].[Cl-].[Cl-].[Cl-].c1cc2ccc1Cc1ccc(cc1)C[n+]1ccn(c1)Cc1ccc(cc1)Cn1cc[n+](c1)Cc1ccc(cc1)Cc1ccc(cc1)C[n+]1ccn(c1)Cc1ccc(cc1)Cn1cc[n+](c1)C2 | ≥ 50 mM | 17% | 1.8 mg/kg |  | Time [1]: 32 min |
| COC(=O)c1cc2cc(c1)Cn1cc[n+](c1)Cc1ccc(cc1)Oc1ccc(cc1)C[n+]1ccn(c1)Cc1cc(cc(C(=O)OC)c1)Cn1cc[n+](c1)Cc1ccc(cc1)Oc1ccc(cc1)C[n+]1ccn(c1)C2.[Cl-].[Cl-].[Cl-].[Cl-] | ≥ 50 mM | 50% | 0.6 mg/kg |  |  |
| [Cl-].[Cl-].[Cl-].[Cl-].c1ccc2c(c1)n1c[n+]2Cc2ccc(cc2)Oc2ccc(cc2)C[n+]2cn(c3ccccc32)CCCCCn2c[n+](c3ccccc32)Cc2ccc(cc2)Oc2ccc(cc2)C[n+]2cn(c3ccccc32)CCCCC1 | ~0.5 mM |  |  | 0% | Time [11]: 27 min |
| Cc1n2cc[n+]1Cc1cccc(c1)C[n+]1ccn(c1C)CCCn1cc[n+](c1C)Cc1cccc(c1)C[n+]1ccn(c1C)CCC2 |  |  |  | 0% | inhibition in vivo at 5 mg/kg [6]: 100%; inhibition in vivo at 0.5 mg/kg [7]: 11% |
| Cc1n2cc[n+]1Cc1ccc(cc1)Oc1ccc(cc1)C[n+]1ccn(c1C)Cn1cc[n+](c1C)Cc1ccc(cc1)Oc1ccc(cc1)C[n+]1ccn(c1C)C2.[Cl-].[Cl-].[Cl-].[Cl-] | ≥ 50 mM |  |  | 63% |  |
| Cc1n2cc[n+]1Cc1ccc(cc1)Oc1ccc(cc1)C[n+]1ccn(c1C)CCCCCCCn1cc[n+](c1C)Cc1ccc(cc1)Oc1ccc(cc1)C[n+]1ccn(c1C)CCCCCCC2.[Cl-].[Cl-].[Cl-].[Cl-] | ≥ 50 mM |  |  | 100% | Time [9]: 18 min; Time [11]: 61 min; Time [10]: 498 s |
| COC(=O)c1cc2cc(c1)Cn1cc[n+](c1)Cc1ccc(cc1)-c1ccc(cc1)C[n+]1ccn(c1)Cc1cc(cc(C(=O)OC)c1)Cn1cc[n+](c1)Cc1ccc(cc1)-c1ccc(cc1)C[n+]1ccn(c1)C2.[Cl-].[Cl-].[Cl-].[Cl-] | ≥ 50 mM | 5% | 1.5 mg/kg |  |  |
| Cc1n2cc[n+]1Cc1ccc(cc1)Oc1ccc(cc1)C[n+]1ccn(c1C)CCCCCn1cc[n+](c1C)Cc1ccc(cc1)Oc1ccc(cc1)C[n+]1ccn(c1C)CCCCC2.[Cl-].[Cl-].[Cl-].[Cl-] | ≥ 50 mM |  |  | 58% |  |
| O=C(O)c1cc2cc(c1)Cn1cc[n+](c1)Cc1ccc(cc1)-c1ccc(cc1)C[n+]1ccn(c1)Cc1cc(cc(C(=O)O)c1)Cn1cc[n+](c1)Cc1ccc(cc1)-c1ccc(cc1)C[n+]1ccn(c1)C2.[Cl-].[Cl-].[Cl-].[Cl-] | ≥ 50 mM | 0% | 1.2 mg/kg |  | Activity [5]: inactive |
| [Cl-].[Cl-].[Cl-].[Cl-].c1cc2cc(c1)Cn1cc[n+](c1)Cc1ccc(cc1)-c1ccc(cc1)C[n+]1ccn(c1)Cc1cccc(c1)Cn1cc[n+](c1)Cc1ccc(cc1)-c1ccc(cc1)C[n+]1ccn(c1)C2 | ≥ 50 mM | 43% | 0.6 mg/kg |  |  |
| [Cl-].[Cl-].[Cl-].[Cl-].c1cc2cc(c1)Cn1cc[n+](c1)Cc1ccc(cc1)Cc1ccc(cc1)C[n+]1ccn(c1)Cc1cccc(c1)Cn1cc[n+](c1)Cc1ccc(cc1)Cc1ccc(cc1)C[n+]1ccn(c1)C2 | ≥ 50 mM | 15% | 2 mg/kg |  |  |
| c1c[n+]2ccc1CCCc1cc[n+](cc1)Cc1ccc(cc1)Oc1ccc(cc1)C[n+]1ccc(cc1)CCCc1cc[n+](cc1)Cc1ccc(cc1)Oc1ccc(cc1)C2 |  | 38% |  | 0% | inhibition in vivo at 0.6 mg/kg [12]: 100% |
| [Cl-].[Cl-].[Cl-].[Cl-].c1cc2ccc1C[n+]1ccn(c1)CCCCCn1cc[n+](c1)Cc1ccc(cc1)Oc1ccc(cc1)C[n+]1ccn(c1)CCCCCn1cc[n+](c1)Cc1ccc(cc1)O2 | ≥ 50 mM |  |  | 100% | Time [9]: 31 min; Time [11]: 41 min; Time [10]: 138 s |
| Cc1n2cc[n+]1Cc1ccc(cc1)Oc1ccc(cc1)C[n+]1ccn(c1C)CCCCn1cc[n+](c1C)Cc1ccc(cc1)Oc1ccc(cc1)C[n+]1ccn(c1C)CCCC2.[Cl-].[Cl-].[Cl-].[Cl-] | ≥ 50 mM |  |  | 100% | Time [9]: 16 min; Time [11]: 47 min; Time [10]: 102 s |
| [Cl-].[Cl-].[Cl-].[Cl-].c1cc2cc(c1)Cn1cc[n+](c1)Cc1ccc(cc1)Oc1ccc(cc1)C[n+]1ccn(c1)Cc1cccc(c1)Cn1cc[n+](c1)Cc1ccc(cc1)Oc1ccc(cc1)C[n+]1ccn(c1)C2 | ≥ 50 mM | 100% | 0.16 mg/kg |  |  |
